Laboratory results: ChEMBL document CHEMBL1132678, “Imidazole-containing diarylether and diarylsulfone inhibitors of farnesyl-protein transferase” (Bioorg Med Chem Lett, 1999)

target: Protein farnesyltransferase (Homo sapiens, UniProt P49354+P49356); assay: Inhibition of Farnesyltransferase; format: protein-complex assay; conditions: not given

Row | IC50 | SMILES
1 | 525 nM | CSCC[C@H](NC(=O)[C@H](Cc1c[nH]c2ccccc12)NC(=O)[C@@H](NC(=O)[C@@H](N)CS)C(C)C)C(=O)O

target: Protein farnesyltransferase (Bos taurus, UniProt P29702+P49355); assay: Inhibition of bovine Farnesyltransferase in vitro.; format: protein-complex assay; conditions: not given

Row | SMILES | IC50
2 | CCCCN(Cc1cn(Cc2ccc(C#N)cc2)cn1)c1ccc(Oc2ccccc2)cc1 | > 100000 nM
3 | c1ccc(Oc2ccc(NCc3cnc[nH]3)cc2)cc1 | > 100000 nM
4 | Cc1ncc(CNc2ccc(S(=O)(=O)c3ccccc3)cc2)n1Cc1ccc(C#N)cc1 | 93 nM
5 | N#Cc1ccc(Cn2cncc2CNc2ccc(Oc3ccccc3)cc2)cc1 | 1300 nM
6 | Cc1cc(N(Cc2cnc(C)n2Cc2ccc(C#N)cc2)C(=O)C2CC2)ccc1S(=O)(=O)c1ccccc1 | 232 nM
7 | CCCCN(Cc1cnc[nH]1)c1ccc(Oc2ccccc2)cc1 | > 100000 nM
8 | CCCCN(Cc1cncn1Cc1ccc(C#N)cc1)c1ccc(Sc2ccccc2)cc1 | 140 nM
9 | O=[N+]([O-])c1ccc(CN(Cc2c[nH]cn2)c2cccc(Oc3ccccc3)c2)cc1 | 3200 nM
10 | O=[N+]([O-])c1ccc(CN(Cc2cnc[nH]2)c2ccc(Oc3ccccc3)cc2)cc1 | 1000 nM

Further lines, results first:

Row | IC50 | SMILES
11 | 81 nM | Cc1ncc(CN(Cc2ccc(C#N)cc2)c2ccc(S(=O)(=O)c3ccccc3)cc2)n1Cc1ccc(C#N)cc1
12 | 42 nM | CCCCN(Cc1cncn1Cc1ccc(C#N)cc1)c1ccc(Oc2ccccc2)cc1
13 | 19 nM | O=C(O)c1cccc(Oc2cccc(N(Cc3cnc[nH]3)Cc3cnc[nH]3)c2)c1
14 | 8 nM | N#Cc1ccc(CN(Cc2cncn2Cc2ccc(C#N)cc2)c2ccc(Oc3ccccc3)cc2)cc1
15 | 8 nM | Cc1cc(N(Cc2cnc(C)n2Cc2ccc(C#N)cc2)CC2CC2)ccc1S(=O)(=O)c1ccccc1
16 | 2.6 nM | O=C(O)c1cccc(Oc2ccc(N(Cc3c[nH]cn3)Cc3c[nH]cn3)cc2)c1
17 | 1 nM | Cc1cc(NCc2cncn2Cc2ccc(C#N)cc2)ccc1S(=O)(=O)c1ccccc1
18 | 0.8 nM | N#Cc1ccc(Cn2cncc2CNc2ccc(C(=O)c3ccccc3)cc2)cc1
19 | 0.7 nM | N#Cc1ccc(Cn2cncc2CNc2ccc(S(=O)(=O)c3ccccc3)cc2)cc1
20 | 0.45 nM | Cc1cc(NCc2cnc(C)n2Cc2ccc(C#N)cc2)ccc1S(=O)(=O)c1ccccc1
21 | 0.4 nM | N[C@H](CS)CNc1ccc(Oc2cccc(C(=O)O)c2)cc1
22 | 0.25 nM | N[C@@H](CS)CNc1cccc(Oc2cccc(C(=O)O)c2)c1

test system: Rat1; assay: Inhibition of proliferation of v-Ha-ras-transformed RAT1 cells on poly-(HEMA)-coated plates; format: functional, cell-based; conditions: Rattus norvegicus

Row | SMILES | IC50
23 | Cc1cc(NCc2cnc(C)n2Cc2ccc(C#N)cc2)ccc1S(=O)(=O)c1ccccc1 | 28 nM
24 | Cc1ncc(CNc2ccc(S(=O)(=O)c3ccccc3)cc2)n1Cc1ccc(C#N)cc1 | 177 nM
25 | Cc1cc(NCc2cncn2Cc2ccc(C#N)cc2)ccc1S(=O)(=O)c1ccccc1 | 16 nM
26 | Cc1cc(N(Cc2cnc(C)n2Cc2ccc(C#N)cc2)CC2CC2)ccc1S(=O)(=O)c1ccccc1 | 109 nM
27 | N#Cc1ccc(Cn2cncc2CNc2ccc(S(=O)(=O)c3ccccc3)cc2)cc1 | 31 nM
